The target in assay [1] is T1, Taste receptor type 2 member 16 (Homo sapiens) (UniProt Q9NYV7).
T1 sequence (whole entry): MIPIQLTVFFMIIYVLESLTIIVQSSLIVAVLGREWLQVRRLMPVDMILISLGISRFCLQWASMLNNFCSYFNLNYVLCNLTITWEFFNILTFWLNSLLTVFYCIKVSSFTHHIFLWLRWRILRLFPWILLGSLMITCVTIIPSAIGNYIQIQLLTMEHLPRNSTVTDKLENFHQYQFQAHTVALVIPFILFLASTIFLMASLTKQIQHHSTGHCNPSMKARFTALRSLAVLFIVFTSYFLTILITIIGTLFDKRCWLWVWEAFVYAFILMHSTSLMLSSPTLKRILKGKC
As to the kind of experiment: Activation of full-length human TAS2R16 expressed in HEK293T/Galpha16-gustducin 44 cells assessed as effect on calcium flux by measuring deltaF/F0 ratio at 5 mM in presence of (E)-4-(2,2,3-trimethylcyclopent-3-enyl)but-2-enoic acid by Fluo-4 dye based FLIPR assay. Type of assay: functional, cell-based.

The target in assay [2] is T1, Taste receptor type 2 member 16 (Homo sapiens). As to the kind of experiment: Activation of full-length human TAS2R16 expressed in HEK293T/Galpha16-gustducin 44 cells assessed as effect on calcium flux by measuring deltaF/F0 ratio at 0.0781 mM in presence of (E)-4-(2,2,3-trimethylcyclopent-3-enyl)but-2-enoic acid by Fluo-4 dye based FLIPR assay. Type of assay: functional, cell-based. Background: A change in cytosolic calcium serves as a functional read-out for many receptors and channels.

For assay [3] the target is unchanged. As to the kind of experiment: Activation of full-length human TAS2R16 expressed in HEK293T/Galpha16-gustducin 44 cells assessed as effect on calcium flux by measuring deltaF/F0 ratio at 10 mM in presence of (E)-4-(2,2,3-trimethylcyclopent-3-enyl)but-2-enoic acid by Fluo-4 dye based FLIPR assay. Type of assay: functional, cell-based.
The target is the same in assay [4]. Kind of assay: Activation of full-length human TAS2R16 expressed in HEK293T/Galpha16-gustducin 44 cells assessed as effect on calcium flux by measuring deltaF/F0 ratio at 0.625 mM in presence of (E)-4-(2,2,3-trimethylcyclopent-3-enyl)but-2-enoic acid by Fluo-4 dye based FLIPR assay. It is filed as functional, cell-based.
Assay [5] shares this target. As to the kind of experiment: Activation of full-length human TAS2R16 expressed in HEK293T/Galpha16-gustducin 44 cells assessed as effect on calcium flux by measuring deltaF/F0 ratio at 2.5 mM in presence of (E)-4-(2,2,3-trimethylcyclopent-3-enyl)but-2-enoic acid by Fluo-4 dye based FLIPR assay. It is filed as functional, cell-based.
Assay [6] shares this target. As to the kind of experiment: Activation of full-length human TAS2R16 expressed in HEK293T/Galpha16-gustducin 44 cells assessed as effect on calcium flux by measuring deltaF/F0 ratio at 0.0391 mM in presence of (E)-4-(2,2,3-trimethylcyclopent-3-enyl)but-2-enoic acid by Fluo-4 dye based FLIPR assay. It is filed as functional, cell-based.
The target is the same in assay [7]. Kind of assay: Activation of full-length human TAS2R16 expressed in HEK293T/Galpha16-gustducin 44 cells assessed as effect on calcium flux by measuring deltaF/F0 ratio at 0.1563 mM in presence of (E)-4-(2,2,3-trimethylcyclopent-3-enyl)but-2-enoic acid by Fluo-4 dye based FLIPR assay. It is filed as functional, cell-based.
Assay [8] has the same target. As to the kind of experiment: Activation of full-length human TAS2R16 expressed in HEK293T/Galpha16-gustducin 44 cells assessed as effect on calcium flux by measuring deltaF/F0 ratio in presence of 4-(2,2,3-trimethylcyclo-pentyl)butanamide) by Fluo-4 dye based FLIPR assay. Type of assay: functional, cell-based.
Assay [9] shares this target. As to the kind of experiment: Activation of full-length human TAS2R16 expressed in HEK293T/Galpha16-gustducin 44 cells assessed as effect on calcium flux by measuring deltaF/F0 ratio at 0.3125 mM in presence of (E)-4-(2,2,3-trimethylcyclopent-3-enyl)but-2-enoic acid by Fluo-4 dye based FLIPR assay. Type of assay: functional, cell-based.
Assay [10] concerns the target T2, Taste receptor type 2 member 31 (Homo sapiens) (UniProt P59538).
T2 sequence (whole entry): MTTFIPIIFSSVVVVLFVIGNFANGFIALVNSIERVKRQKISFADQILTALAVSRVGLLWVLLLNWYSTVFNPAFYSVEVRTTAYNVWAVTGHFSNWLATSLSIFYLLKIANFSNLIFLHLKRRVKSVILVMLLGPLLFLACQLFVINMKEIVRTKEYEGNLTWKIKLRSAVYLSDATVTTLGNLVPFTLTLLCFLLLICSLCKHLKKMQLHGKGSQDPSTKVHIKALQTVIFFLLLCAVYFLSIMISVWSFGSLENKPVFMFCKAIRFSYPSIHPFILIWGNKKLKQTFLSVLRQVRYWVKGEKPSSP
As to the kind of experiment: Activation of full-length human TAS2R44 expressed in HEK293T/Galpha16-gustducin 44 cells assessed as effect on calcium flux by measuring deltaF/F0 ratio at 12.5 mM in presence of (E)-4-(2,2,3-trimethylcyclopent-3-enyl)but-2-enoic acid by Fluo-4 dye based FLIPR assay (reference value: 0.051 +/- 0.004). Type of assay: functional, cell-based.

Assay [11] concerns the target T2, Taste receptor type 2 member 31 (Homo sapiens). Kind of assay: Activation of full-length human TAS2R44 expressed in HEK293T/Galpha16-gustducin 44 cells assessed as effect on calcium flux by measuring deltaF/F0 ratio at 6.25 mM in presence of (E)-4-(2,2,3-trimethylcyclopent-3-enyl)but-2-enoic acid by Fluo-4 dye based FLIPR assay (reference value: 0.027 +/- 0.029). It is filed as functional, cell-based.

Assay [12] concerns the target T3, Taste receptor type 2 member 10 (Homo sapiens) (UniProt Q9NYW0).
T3 sequence (whole entry): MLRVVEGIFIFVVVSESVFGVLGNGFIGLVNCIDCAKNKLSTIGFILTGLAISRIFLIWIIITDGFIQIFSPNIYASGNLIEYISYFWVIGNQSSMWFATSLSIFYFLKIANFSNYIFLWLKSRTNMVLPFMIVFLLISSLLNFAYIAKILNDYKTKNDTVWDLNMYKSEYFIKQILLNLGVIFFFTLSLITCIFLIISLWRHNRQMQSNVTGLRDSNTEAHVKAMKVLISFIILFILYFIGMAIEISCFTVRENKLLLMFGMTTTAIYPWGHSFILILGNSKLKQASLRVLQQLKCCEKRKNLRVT
Kind of assay: Activation of full-length human TAS2R10 expressed in HEK293T/Galpha16-gustducin 44 cells assessed as effect on calcium flux by measuring deltaF/F0 ratio by Fluo-4 dye based FLIPR assay. It is filed as functional, cell-based.

The species entered for assay [13] is Homo sapiens. As to the kind of experiment: Induction of bitter sensitivity in bitter sensitive human panelists tasting solution containing 3 mM compound in presence of 13 ppm (E)-4-(2,2,3-trimethylcyclopent-3-enyl)but-2-enoic acid. Type of assay: functional, organism-based.
In assay [14] the target is T2, Taste receptor type 2 member 31 (Homo sapiens). As to the kind of experiment: Agonist activity at full-length human TAS2R44 expressed in HEK293T/Galpha16-gustducin 44 cells assessed as effect on calcium flux by measuring deltaF/F0 ratio in presence of 4-(2,2,3-trimethylcyclo-pentyl)butanamide) by Fluo-4 dye based FLIPR assay. Type of assay: functional, cell-based.

For assay [15] the target is unchanged. As to the kind of experiment: Activation of full-length human TAS2R44 expressed in HEK293T/Galpha16-gustducin 44 cells assessed as effect on calcium flux by measuring deltaF/F0 ratio at 0.7813 mM in presence of (E)-4-(2,2,3-trimethylcyclopent-3-enyl)but-2-enoic acid by Fluo-4 dye based FLIPR assay (reference value: 0.038 +/- 0.042). It is filed as functional, cell-based.

The target of assay [16] is T4, Taste receptor type 2 member 46 (Homo sapiens) (UniProt P59540).
T4 sequence (whole entry): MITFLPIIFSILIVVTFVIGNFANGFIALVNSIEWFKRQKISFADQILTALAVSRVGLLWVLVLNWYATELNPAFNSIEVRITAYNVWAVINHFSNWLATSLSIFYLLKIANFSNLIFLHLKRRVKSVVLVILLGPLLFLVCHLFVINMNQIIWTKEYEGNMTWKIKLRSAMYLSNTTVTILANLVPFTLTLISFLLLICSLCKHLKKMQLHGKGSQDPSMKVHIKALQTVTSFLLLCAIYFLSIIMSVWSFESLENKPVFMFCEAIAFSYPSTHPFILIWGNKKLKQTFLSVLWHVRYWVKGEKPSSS
As to the kind of experiment: Activation of full-length human TAS2R46 expressed in HEK293T/Galpha16-gustducin 44 cells assessed as effect on calcium flux by measuring deltaF/F0 ratio by Fluo-4 dye based FLIPR assay. It is filed as functional, cell-based.

In assay [17] the target is T2, Taste receptor type 2 member 31 (Homo sapiens). As to the kind of experiment: Activation of full-length human TAS2R44 expressed in HEK293T/Galpha16-gustducin 44 cells assessed as effect on calcium flux by measuring deltaF/F0 ratio at 3.125 mM in presence of (E)-4-(2,2,3-trimethylcyclopent-3-enyl)but-2-enoic acid by Fluo-4 dye based FLIPR assay (reference value: 0.030 +/- 0.042). Type of assay: functional, cell-based.

For assay [18], the species on record is Homo sapiens. Kind of assay: Induction of bitter sensitivity in bitter sensitive human panelists tasting solution containing 3 mM compound in absence of 13 ppm (E)-4-(2,2,3-trimethylcyclopent-3-enyl)but-2-enoic acid. Type of assay: functional, organism-based.
A further assay has as its system HEK-293T. As to the kind of experiment: Effect on calcium flux in HEK293T/Galpha16-gustducin 44 cells assessed as deltaF/F0 ratio at 100 mM in presence of (E)-4-(2,2,3-trimethylcyclopent-3-enyl)but-2-enoic acid, by Fluo-4 dye based FLIPR assay. It is filed as functional, Homo sapiens.
Assay [19] deals with T2, Taste receptor type 2 member 31 (Homo sapiens). Kind of assay: Activation of full-length human TAS2R44 expressed in HEK293T/Galpha16-gustducin 44 cells assessed as effect on calcium flux by measuring deltaF/F0 ratio at 0.3906 mM in presence of (E)-4-(2,2,3-trimethylcyclopent-3-enyl)but-2-enoic acid by Fluo-4 dye based FLIPR assay (reference value: 0.046 +/- 0.048). It is filed as functional, cell-based.

Assay [20] deals with T5, Taste receptor type 2 member 1 (Homo sapiens) (UniProt Q9NYW7).
T5 sequence (whole entry): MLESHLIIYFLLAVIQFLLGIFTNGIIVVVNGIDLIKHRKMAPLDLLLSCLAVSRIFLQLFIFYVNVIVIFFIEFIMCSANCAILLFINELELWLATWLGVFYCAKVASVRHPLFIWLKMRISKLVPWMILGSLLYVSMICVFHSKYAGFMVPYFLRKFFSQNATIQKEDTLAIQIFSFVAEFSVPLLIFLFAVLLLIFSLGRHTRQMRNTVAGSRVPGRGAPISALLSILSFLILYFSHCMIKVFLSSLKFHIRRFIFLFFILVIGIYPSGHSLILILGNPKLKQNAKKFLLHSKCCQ
Kind of assay: Activation of full-length human TAS2R1 expressed in HEK293T/Galpha16-gustducin 44 cells assessed as effect on calcium flux by measuring deltaF/F0 ratio by Fluo-4 dye based FLIPR assay. Type of assay: functional, cell-based.

Assay [21] addresses T6, Taste receptor type 2 member 31 (Homo sapiens, UniProt P59538).
T6 sequence (P59538 whole entry): T2 sequence (whole entry)
Kind of assay: Agonist activity at full-length human TAS2R44 expressed in HEK293T/Galpha16-gustducin 44 cells assessed as effect on calcium flux by measuring deltaF/F0 ratio in presence of (E)-4-(2,2,3-trimethylcyclopent-3-enyl)but-2-enoic acid by Fluo-4 dye based FLIPR assay. It is filed as functional, cell-based.

Assay [22] deals with T2, Taste receptor type 2 member 31 (Homo sapiens). Kind of assay: Activation of full-length human TAS2R44 expressed in HEK293T/Galpha16-gustducin 44 cells assessed as effect on calcium flux by measuring deltaF/F0 ratio at 50 mM in presence of (E)-4-(2,2,3-trimethylcyclopent-3-enyl)but-2-enoic acid by Fluo-4 dye based FLIPR assay (reference value: 0.192 +/- 0.011). It is filed as functional, cell-based.

Assay [23] shares this target. Kind of assay: Activation of full-length human TAS2R44 expressed in HEK293T/Galpha16-gustducin 44 cells assessed as effect on calcium flux by measuring deltaF/F0 ratio at 25 mM in presence of (E)-4-(2,2,3-trimethylcyclopent-3-enyl)but-2-enoic acid by Fluo-4 dye based FLIPR assay (reference value: 0.110 +/- 0.019). It is filed as functional, cell-based.

Active and inactive are the calls of the source. The calls are words filed in the database; no cut-off is given here.

Take `OC[C@H]1O[C@@H](Oc2ccccc2)[C@H](O)[C@@H](O)[C@@H]1O`: the Ratio is 2.65 in assay [1]; 0.108 in [2]; 2.83 in [3]; 2.14 in assay [4]; 2.48 in assay [5]; -0.013 in assay [6]. The Ratio in assay [7] stood at 0.702; in assay [9] it was 1.55. Besides, the result in assay [8] was Active.
Consider `OC[C@H]1O[C@H](O[C@]2(CCl)O[C@H](CCl)[C@@H](O)[C@@H]2O)[C@H](O)[C@@H](O)[C@H]1Cl` [SUCRALOSE], for which the Ratio in assay [10] is -0.015; in [11] it was 0; in [15] it was 0.01; in assay [17] it was 0.005; in the assay on HEK-293T, -0.175; in assay [19] it was 0.011. Also, the Ratio was -0.025 in assay [22] and -0.035 in assay [23]. The Activity result in assay [12], in assay [16] and in assay [20] was “Dose-dependent effect” each time. Moreover, the outcome in the assay listed under Homo sapiens [13] was inactive. Moreover, the result (in [14]; in the assay filed under Homo sapiens [18]) was Active. Besides, the EC50 entry in assay [21] was “Not Active”.

The values above are taken from ChEMBL document CHEMBL4418911, “Methods to identify modulators” (2012).
